Earlier results on 3 compounds are cited in patent US8435575B2, “Use of gingerols for cancer patients suffering from nausea and emesis induced by chemotherapy” (priority 2010, dated 2013).

For data set [1], the system named is post-operative nausea and vomiting.
Data set [2] has as its system post operative vomiting and nausea.
The test system of data set [3] is post surgical nausea and vomiting. The following applies: oral ginger, 1.25 mg intravenous droperidol; 24 hour period following surgery.
Data set [4] has as its system vection-induced motion sickness. The following applies: college students with self-reported high susceptibility to motion sickness.

“Also recorded” adds a separate entry of the source.

Take `CCN(CC)CCNC(=O)c1cc(Cl)c(N)cc1OC` [metochlopramide]: the “post-operative nausea and vomiting control versus placebo” value in data set [1] (1.0 g ginger or 10 mg metochlopramide orally prior to gynecological surgery, P < .05) is given as “significantly more effective than placebo”. Also, the “post-operative vomiting versus placebo” value in data set [1] (both active drugs vs placebo) was “less vomiting”. In data set [2] (1 gram ginger powder or metochlopramide one hour prior to anaesthesia, laparoscopic gynaecological surgery), the “post-operative nausea versus placebo” value is “significantly more effective than placebo”. In addition, the patients nauseated entry in data set [2] (after laparoscopic gynaecological surgery, 41% with placebo) was “placebo, 27%”. In addition, in data set [2] (ginger vs metochlopramide vs placebo), the “frequency of emesis between the three arms” value is listed as “no significant differences”.

Turning to `O=C(CCCN1CC=C(n2c(=O)[nH]c3ccccc32)CC1)c1ccc(F)cc1` [droperidol], the “statistically significant decrease in post-operative nausea or vomiting versus placebo” value in data set [3] is given as “no differences; also recorded: Neither drug showed a”.

Regarding `CN(C)CCOC(c1ccccc1)c1ccccc1` [diphenhydramine], the “preventing gastrointestinal symptoms caused by vection-induced motion sickness, versus dried chickweed herb placebo” value in data set [4] is “more effective than dried chickweed herb placebo”.
